This is an account of results in patent US20110165611A1, “DUAL MODALITY DETECTION OF APOPTOSIS” (priority 2008, published 2011).

Series [1] in a line: Stability of DEVD profluorophore 2 in PBS and serum-containing culture medium. The format is physicochemical. As to conditions: 10 μM in PBS, 1 μM in medium, room temperature, 8 h. How it is done:
Stability of DEVD profluorophore 2 in PBS and serum-containing culture medium For the stability assay, the generation of fluorescence was recorded continuously at room temperature for 8 h for a solution of 2 (10 μM) or fluorescein diacetate (10 μM) in 3 mL of PBS using a Fluorolog-3 fluorometer (Jobin Yvon, Edison, N.J.) at λex=496 nm. The procedure was repeated for a solution of 2 (1 μM) or fluorescein diacetate (1 μM) in Dulbecco's modified Eagle medium supplemented with 10% (v/v) fetal bovine serum. Cleavage of amide bond linking R110 to DEVD or hydrolysis of fluorescein diacetate would result in increased fluorescence signal.

Series [2] deals with DLD1 cells. The series is described as follows: Fluorescence microscopy of viable and TRAIL-treated apoptotic DLD1 cells. The series is classed as cell-based, human. The conditions noted are these: for Effect on apoptosis of DLD1 cells (annexin V staining): annexin V-Alexa Fluor 594 staining.
Experimental: Fluorescence Microscopy Human epithelial cells from colorectal adenocarcinoma (DLD1) were seeded (1×10^4/well) in a 96-well plate 1 day before experiments. Apoptosis was induced by treating cells with TRAIL (100 μL, 250 ng/mL) for 2 h at 37° C. Both apoptotic and viable cells were incubated with 100 μL of 2 or 3 in (final concentration, 50 μM) for 2 h at 37° C. The cells were washed and stained with Annexin V-Alexa Fluor 594. After washing with PBS, the cells were transferred into Lab-Tek II chambered cover glass and visualized under Olympus Fluoview FV1000 confocal laser scanning microscope (FV1-ASW, Olympus, Melville, N.Y.) equipped with fluorescein isothiocyanate (wavelength: 495/519 nm) and Texas red filters (wavelength: 589/615 nm). In separate wells, TRAIL was added in the presence of 50 μM of Ac-DEVD-CHO to inhibit caspase 3 activity.
Fluorescence microscopy Human epithelial cells from colorectal adenocarcinoma (DLD1) were obtained from American Type Cell Culture (Manassas, Va.). Cells were seeded (1×10^4/well) in a 96-well plate (Corning, Lowell, Mass.) supplemented with RPMI-1640 medium plus 10% fetal bovine serum (FBS) 1 day before experiments. Apoptosis was induced by treating cells with TRAIL (100 μL, 250 ng/mL) for 2 h at 37° C. The treated apoptotic cells were collected in conical tubes, while the untreated viable cells were trypsinized. The cells were centrifuged at 3000 rpm for 5 mM. The pellets were washed with RPMI 1640 without phenol red. Both apoptotic and viable cells were incubated with 100 μL, of 2 or 3 in RPMI 1640 without phenol red (final concentration, 50 μM) for 2 h at 37° C. The cells were washed and resuspended in annexin-binding buffer (10 mM HEPES, 140 mM NaCl, and 2.5 mM CaCl2 [pH 7.4]). Five microliters of Alexa Fluor 594-annexin V conjugate was added into each 100 μl of cell suspension, and the cells were incubated for 15 min at room temperature. […]
For series [3], the target named is T1, Human caspase 3 (Homo sapiens, UniProt P42574).
T1 construct: purchased Sigma-Aldrich
T1 sequence (P42574 29-175 limits assumed): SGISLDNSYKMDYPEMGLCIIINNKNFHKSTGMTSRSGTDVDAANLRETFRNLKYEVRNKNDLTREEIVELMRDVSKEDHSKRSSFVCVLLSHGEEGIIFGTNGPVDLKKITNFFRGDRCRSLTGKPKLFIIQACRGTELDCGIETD
T1 sequence (P42574 176-277 limits assumed): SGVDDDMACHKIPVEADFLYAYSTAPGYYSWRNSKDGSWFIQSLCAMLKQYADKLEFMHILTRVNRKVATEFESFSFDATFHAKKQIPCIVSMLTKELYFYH
Nature of the series: Cleavage by caspase 3 (fluorescence emission and LC-MS). The series is classed as biochemical. The protocol:
Cleavage by caspase 3 Human caspase 3 (Sigma-Aldrich) (5 μg) was reconstituted with 50 μL of deionized water (100 μg/mL) and stored in aliquots at −70° C. Before its use, an aliquot of reconstituted caspase 3 was thawed and diluted 200-fold in 1× assay buffer to a final concentration of 0.5 μg/mL. Five microliters of diluted caspase 3 was then added into a solution of 2 (22 μM) in 3 mL 1× assay buffer (20 mM HEPES [pH 7.4], with 2 mM ethylenediaminetetraacetic acid, 0.1% 3-[(3-cholamidopropyl)dimethylammonio]-1-propanesulfonate, and 5 mM dithiothreitol). The reaction mixture was incubated in cuvet in dark at room temperature and the emission spectra were recorded at intervals of 0, 10, 20, 30 and 60 min on a Fluorolog 3 fluorometer (HORIBA, Edison, N.J.) with an excitation wavelength (λex) of 496 nm.
To further confirm cleavage of 2 by caspase 3, 5 μL of caspase 3 (0.5 μg/mL) was mixed with 10 μL of 1 mM solution of 2 dissolved in 1× assay buffer. After 1 h at room temperature, the reaction mixture was injected into LC-MS system.

The subject of series [4] is DLD1 cells. Nature of the series: Cellular uptake and efflux of DEVD peptides 2 and 3, fluorescence analysis. The series is classed as cell-based, human. The protocol:
Cellular uptake and efflux of DEVD peptides 2 and 3—fluorescence analysis DLD1 cells were seeded (1×10^4/well) in a 96-well plate 1 day before experiments. The DLD1 cells were sequentially treated with 100 μL of the following agents at 37° C.: (A) 25 μM each DEVD conjugate for 2 h; (B) 25 μM each DEVD conjugate for 2 h followed by TRAIL (150 ng/L) for 2 h; (C) 25 μM each DEVD conjugate for 2 h, drug-free culture medium for 2 h, and TRAIL (150 ng/L) for 2 h; and (D) 25 μM each DEVD conjugate for 2 h, drug-free culture medium for 24 h, and TRAIL (150 ng/L) for 2 h. The cells were washed with PBS twice before each medium replacement. After treatment, the cells were lysed with 100 μL of lysis buffer (Sigma) for […] at room temperature. The fluorescence intensity of cleaved R110 was measured using a TECAN microplate reader (San Jose, Calif.). The measurement parameters were as follows: excitation wavelength, 485 nm; emission wavelength, 520 nm; excitation and emission bandwidth, both 12.0 nm; gain, 50; number of flashes, 10; and integration time, 30 μs. The measurements were performed 4 times each.
Uptake and release kinetics of DEVD peptides in normal and apoptotic cells. DLD-1 cells were seeded (1×10^4/well) in 96 well plate 1 days before experiment. […] The fluorescent intensity of cleaved R110 was measured using TECAN microplate reader (San Jose, Calif.). […]

Series [5] has as its system activated caspase 3 in liver. The series is described as follows: Fluorescence microscopic analysis of liver from mice injected 99mTc-chelate 4. The format is in vivo, mouse. As to conditions: anti-Fas-treated vs PBS-treated liver, 2 h after i.v. injection. How it is done: The tissue slices were fixed using 4% paraformaldehyde for 15 min at room temperature. After PBS washing, the samples were blocked with 10% goat serum at 37° C. for 30 min, followed by 1 μg/mL of rabbit anti-mouse-activated caspase 3 monoclonal antibody (R&D Systems, Minneapolis, Minn.) at 4° C. overnight. Texas red-conjugated goat anti-rabbit IgG (1:1000, Invitrogen, Eugene, Oreg.) was used as second antibody at room temperature for 1 h. Cell nuclei were counterstained with 3 μg/mL of Hoechst 33342 at room temperature for 5 min. The slices were mounted and visualized under a Zeiss Axio Observer.Z1 fluorescence microscope (Carl Zeiss MicroImaging GmbH, Göttingen, Germany).

In series [6] the test system is DLD1 cells. The series is described as follows: Cellular uptake and efflux of 99mTc-chelate 4, radiotracer analysis. The format is cell-based, human. The protocol: The medium was replaced with 2 mL of medium containing radiotracers 99 mTc-chelate 4 [Ac-DEVD-R110-D-SAAC-99mTc(CO)3] (˜40 μCi/mL) or its fragment R110-D-SAAC-99 mTc(CO)3 (˜40 μCi/mL). The cells were subsequently incubated for 60 and 120 min before the monolayers were scraped, transferred into 5-mL tubes. The tubes were briefly vortexed and 100 μL DLD1 cell suspension were transferred into a microcentrifuge tube containing 500 μL of a 75:25 mixture of silicon oil (density 1.05, Aldrich) and mineral oil (density 0.872, Acros). The mixture was centrifuged at 14,000 rpm for 5 min. After freezing the tubes with liquid nitrogen, the bottom tips containing the cell pellet were cut off. The cell pellets and the supernatants were counted with a γ-counter (Perkin-Elmer). The protein content in 100 μl cell suspension was quantified in a separate experiment using the Bio-Rad protein assay kit according to the manufacturer's protocol. For efflux study, cells were incubated with each radiotracer for 2 hrs, then the medium was removed and the cells washed with medium twice. The cells were incubated with 2 mL of fresh medium for additional 60 min, 120 min, and 180 min. The radioactivity in the cell pellets and media were counted as described before. Activity ratios of the cell pellet to medium ([cpm/g protein in pellet]/[cpm/g medium]) were calculated and plotted against time. The experiments were performed in pentaplicate.

Series [7] relates to apoptotic liver. The series is described as follows: Gamma imaging in murine liver apoptosis model (anti-Fas). The series is classed as in vivo, mouse. As to conditions: 300 μCi i.v., imaging 120 min after injection. An excerpt: We used a murine liver apoptosis model to evaluate whether chelate 4 could be used to image apoptosis in vivo. F. G. Blankenberg, J. F. Tait, R. E. Davis, L. Naumovski, K. Ohtsuki, S. Kopiwoda, M. J. Abrams, M. Darkes, R. C. Robbins, H. T. Maecker, H. W. Strauss, Proc. Natl. Acad. Sciences USA 1998, 95, 6349-6354; F. G. Blankenberg, P. D. Katsikis, J. F. Tait, R. E. Davis, L. Naumovski, K. Ohtsuki, S. Kopiwoda, M. J. Abrams, H. W. Strauss, J. Nucl. Med. 1999, 40, 184-191. Male Balb/c mice (10-12 weeks old, weight 20-25 g) were injected intravenously with an anti-Fas monoclonal antibody (10 μg/mouse) to induce apoptosis in the liver. […] Radionuclide imaging was acquired 120 min after the injection of 4.
Gamma Imaging and Biodistribution For γ-imaging study, two male Balb/c mice (10-12 weeks old, weight 20-25 g) (Charles River, Wilmington, Mass.) were injected intravenously with a purified anti-Fas monoclonal antibody (10 μg/mouse) (Pharmingen, San Diego, Calif.). Two mice injected with PBS were used as a control group. […] The organs of interest were excised and weighed, and radioactivity was counted in a gamma counter. The stomach and intestines were emptied of food contents prior to radioactivity measurements. The percentage of injected dose per gram (% ID/g) was calculated by dividing the % ID/organ by the weight of the tissue.

A short description of series [8]: Stability of 99mTc-chelate 4, ligand challenge with cysteine and histidine. The series is classed as physicochemical. The conditions noted are these: 0.01 M cysteine or histidine in PBS, 37° C., 1 and 5 h. How it is done: A large excess of competing donors cysteine and histidine was used as a means of evaluating the complex's tendency to undergo transchelation. […] The samples were incubated at 37° C. and analyzed by HPLC at 1- and 5-h intervals.

Entries after “also recorded” stand apart in the source; their conditions may differ.

On to `CC(=O)Oc1ccc2c(c1)Oc1cc(OC(C)=O)ccc1C21OC(=O)c2ccccc21` [fluorescein diacetate, reference compound], for which, in series [1], the “Stability in PBS and culture medium with 10% FBS (generation of fluorescence)” value was “relatively rapid hydrolysis in both solutions”.

With Ac-DEVD-CHO, the “Effect of caspase 3 inhibitor on fluorescent signal from 3” value in series [2] (50 μM Ac-DEVD-CHO with TRAIL) is “significantly reduced the fluorescent signal from 3”. For the same molecule, the “Effect on apoptosis of DLD1 cells (annexin V staining)” value in series [2] is given as “did not inhibit the apoptosis of DLD1 cells”.

Turning to Ac-DEVD-R110-D-SAAC-Fmoc [Compound 2], the “Stability in PBS and culture medium with 10% FBS (generation of fluorescence)” value in series [1] was “stable in both PBS and culture medium supplemented with serum; also recorded: remarkable stability in both PBS and culture medium supplemented with serum”. In addition, in series [3] (22 μM, over 60 min, λex 496 nm), the “Fluorescence change after introduction of caspase 3” value is recorded as “large increase in fluorescence”. Besides, the “Fluorescence emission without exposure to caspase 3” value in series [3] (22 μM, λex 496 nm, room temperature) is given as “near-baseline emission”. In series [3] (1 h at room temperature), the “Site of hydrolytic cleavage by caspase 3 (LC-MS)” value was “occurred selectively at the amide bond between DEVD and R110”. Besides, in series [3] (fluorescence increase and LC-MS), the “Degradation on incubation with caspase 3” value is given as “completely degraded”. For the same molecule, the “Uptake in viable tumor cells: reversibility (efflux in drug-free medium 2 or 24 h)” value in series [4] (25 μM 2 h, then drug-free medium, then TRAIL) is “reversible process”. Moreover, the “Increase of fluorescence intensity upon TRAIL treatment” value in series [4] (25 μM 2 h followed by TRAIL (150 ng/mL) 2 h vs no TRAIL) came out at 27 fold.

For “Ac-DEVD-R110-D-SAAC-^99mTc(CO)3 [^99mTc-chelate 4]”, the “Cleavage of fluorogenic probe in liver sections” value in series [5] is “shown only in the apoptotic liver but not in the normal liver”. The “Uptake in DLD1 cells (cell pellet to medium activity ratio)” value in series [6] (1-2 h of incubation, compared with fragment) is “accumulated significantly more in the cells than its fragment did; also recorded: significantly higher uptake in DLD1 cells”. Besides, in series [6] (2 h loading, fresh medium 60-180 min), the “Efflux / retention in DLD1 cells after wash” value is recorded as “washed out of the cells over time; also recorded: gradually washed out”. Moreover, in series [7], the “Liver uptake, anti-Fas-treated vs PBS-treated mice (radionuclide imaging)” value is listed as “Significantly higher uptake”. Besides, the “Transchelation under cysteine/histidine challenge” value in series [8] is “No transchelation was observed”.

B1: TRAIL: tumor necrosis factor-related apoptosis-inducing ligand, recombinant human (protein, UniProt P50591 1-281, looked up)
Tumor necrosis factor ligand …: MAMMEVQGGPSLGQTCVLIVIFTVLLQSLCVAVTYVYFTNELKQMQDKYSKSGIACFLKEDDSYWDPNDEESMNSPCWQVKWQLRQLVRKMILRTSEETISTVQEKQQNISPLVRERGPQRVAAHITGTRGRSNTLSSPNSKNEKALGRKINSWESSRSGHSFLSNLHLRNGELVIHEKGFYYIYSQTYFRFQEEIKENTKNDKQMVQYIYKYTSYPDPILLMKSARNSCWSKDAEYGLYSIYQGGIFELKENDRIFVSVTNEHLIDMDHEASFFGAFLVG
Take B1: the “Effect on apoptosis of DLD1 cells (annexin V staining)” value in series [2] was “induced significant apoptosis”.
